Results: BindingDB's records for doi:10.1016/s0960-894x(00)00023-8 (Dupont Pharmaceuticals, 2000)
pIC50: −log10 of the molar value. Structures can show the parent of a compound that is named as a salt.

Experiments:
[1] = Inhibition of platelet aggregation in human platelet rich plasma (hPRP)
[2] = as above; remark: listed apart in the source

| SMILES | pIC50 [1] | pIC50 [2] |
| --- | --- | --- |
| N=C(N)c1ccc(C2=NOC(CC(=O)N3CCC(=O)C(C(=O)O)C3)C2)cc1 (configuration not stated) [1-{2-[3-(4-Carbamimidoyl-phenyl)-4,5-dihydro-isoxazol-5-yl]-acetyl}-4-oxo-piperidine-3-carboxylic acid; TFA] |  | 5.19 |
| N=C(N)c1ccc(C2=NOC(CC(=O)N3CCCC(C(=O)O)C3)C2)cc1 (configuration not stated) [1-{2-[3-(4-Carbamimidoyl-phenyl)-4,5-dihydro-isoxazol-5-yl]-acetyl}-piperidine-3-carboxylic acid; TFA] |  | 5.28 |
| N=C(N)c1ccc(C2=NOC(CC(=O)N3CCCCCC3CC(=O)O)C2)cc1 (configuration not stated) [(1-{2-[3-(4-Carbamimidoyl-phenyl)-4,5-dihydro-isoxazol-5-yl]-acetyl}-azepan-2-yl)-acetic acid; TFA] |  | 5.43 |
| N=C(N)c1ccc(C2=NOC(CC(=O)N3CCCC3CC(=O)O)C2)cc1 (configuration not stated) [(1-{2-[3-(4-Carbamimidoyl-phenyl)-4,5-dihydro-isoxazol-5-yl]-acetyl}-pyrrolidin-2-yl)-acetic acid; TFA] |  | 5.96 |

Other lines, results leading:

| pIC50 [1] | pIC50 [2] | SMILES |
| --- | --- | --- |
| 7.22 |  | N=C(N)c1ccc(C2=NOC(CC(=O)NCCC(=O)O)C2)cc1 (configuration not stated) |
|  | 5.60 | N=C(N)c1ccc(C2=NOC(CC(=O)N3CCC(C(=O)O)CC3)C2)cc1 (configuration not stated) [1-{2-[3-(4-Carbamimidoyl-phenyl)-4,5-dihydro-isoxazol-5-yl]-acetyl}-piperidine-4-carboxylic acid; TFA] |
|  | 6.55 | N=C(N)c1ccc(C2=NOC(CC(=O)N3CCCCC3CC(=O)O)C2)cc1 (configuration not stated) [(1-{2-[3-(4-Carbamimidoyl-phenyl)-4,5-dihydro-isoxazol-5-yl]-acetyl}-piperidin-2-yl)-acetic acid; TFA] |
